Assay results as given in US20230047788A1, “COMPOSITIONS COMPRISING 5-CHOLESTEN-3, 25-DIOL, 3-SULFATE (25HC3S) OR PHARMACEUTICALLY ACCEPTABLE SALT THEREOF AND AT LEAST ONE CYCLIC OLIGOSACCHARIDE” (Virginia Commonwealth University, priority 2016, published 2023).
Where “and” joins values, the source holds several entries; their conditions need not be identical. Equal entries are not always repeated.

Assay: Infusion compatibility of constituted 25HC3S solution with 5% dextrose, 0.9% sodium chloride and two infusion sets
Format: physicochemical
Conditions: for % Remaining after infusion set / Concentration after infusion set / Osmolality after infusion set / pH after infusion set: 0.9% NaCl
Method: After constitution with Vehicle, the 30 mg/mL 25HC3S product was diluted into 100 mL of 5% dextrose injection, USP or 0.9% sodium chloride injection, USP, and was administered to subjects as an IV infusion ranging from a 30 mg to 150 mg 25HC3S dose. This was accomplished by adding 1.0 mL (for the 30 mg dose) or 5.0 mL (for the 150 mg dose), or any volume in between, of the 30 mg/mL 25HC3S product into a 100 mL dextrose or sodium chloride infusion bag. The entire admixture content in the infusion bag was infused into the subject over approximately 2 hours at a rate of 50 mL/hour.
A physical and chemical compatibility study was conducted at a 30 mg, 48 mg and 300 mg 25HC3S dose in 5% dextrose and 0.9% sodium chloride infusion bags. Descriptions of the two kinds of infusion sets tested with 25HC3S product diluted in 5% dextrose and 0.9% sodium chloride are listed in Table 15. The tubing in catalog number 2H8480 infusion set was composed of polyvinylchloride (PVC), while the tubing in catalog number 2C8858 was polyethylene lined except for a short pump segment (approximately 12 inches) which was composed of PVC.
25HC3S for Injection and Vehicle for 25HC3S for Injection, that had been stored at 2-8° C. for approximately 16 months, were used for the compatibility study. After constitution, 30 mg (1.0 mL of constituted product), 48 mg (1.6 mL of constituted product) or 300 mg (10 mL of constituted product) were added to 100 mL infusion bags of 5% dextrose and 0.9% sodium chloride, mixed thoroughly, and stored for 24 hours at room temperature and at 2-8° C. […] Taking into consideration the overfill per infusion bag and the additional volume introduced by adding the constituted 25HC3S product to each bag, the expected concentrations of 25HC3S were 0.28 mg/mL, 0.44 mg/mL, and 2.56 mg/mL in the infusion bags. Two kinds of infusion sets were then attached to the drug containing infusion bags, and the entire contents were eluted through the infusion sets at approximately 50 mL/hour at room temperature. Samples were collected from the 25HC3S prepared infusion bags at T=0 and at 24 hours, and from the total eluent passed through the infusion sets, and tested for 25HC3S concentration using HPLC. Solution visual appearance, osmolality (using method USP<785>), and pH (using method USP<791>) were also measured on the collected samples.

[1] = ~0.28 mg/mL, 24 h 2-8°C then Baxter 2C8858
[2] = ~0.28 mg/mL, 24 h 2-8°C then Baxter 2H8480
[3] = ~0.28 mg/mL, 24 h RT then Baxter 2C8858
[4] = ~0.28 mg/mL, 24 h RT then Baxter 2H8480
[5] = ~0.44 mg/mL, 24 h 2-8°C then Baxter 2C8858
[6] = ~0.44 mg/mL, 24 h 2-8°C then Baxter 2H8480
[7] = ~0.44 mg/mL, 24 h RT then Baxter 2C8858
[8] = ~0.44 mg/mL, 24 h RT then Baxter 2H8480
[9] = ~2.56 mg/mL, 24 h 2-8°C then Baxter 2C8858
[10] = ~2.56 mg/mL, 24 h 2-8°C then Baxter 2H8480
[11] = ~2.56 mg/mL, 24 h RT then Baxter 2C8858
[12] = ~2.56 mg/mL, 24 h RT then Baxter 2H8480
[13] = 0.9% sodium chloride bag, ~0.28 mg/mL, 24 Hours at 2-8°C
[14] = 0.9% sodium chloride bag, ~0.28 mg/mL, 24 Hours at RT
[15] = 0.9% sodium chloride bag, ~0.28 mg/mL, T = 0
[16] = 0.9% sodium chloride bag, ~0.44 mg/mL, 24 Hours at 2-8°C
[17] = 0.9% sodium chloride bag, ~0.44 mg/mL, 24 Hours at RT
[18] = 0.9% sodium chloride bag, ~0.44 mg/mL, T = 0
[19] = 0.9% sodium chloride bag, ~2.56 mg/mL, 24 Hours at 2-8°C
[20] = 0.9% sodium chloride bag, ~2.56 mg/mL, 24 Hours at RT
[21] = 0.9% sodium chloride bag, ~2.56 mg/mL, T = 0

SMILES: C[C@H](CCCC(C)(C)O)[C@H]1CC[C@H]2[C@@H]3CC=C4C[C@@H](OS(=O)(=O)[O-])CC[C@]4(C)[C@H]3CC[C@]12C.[Na+] [25HC3S, 5-cholesten-3, 25-diol, 3-sulfate]
- % Remaining after infusion set [1]: (100.0%)
- Concentration after infusion set [1]: 275 µg/mL
- Osmolality after infusion set [1]: 276 mmol/kg
- pH after infusion set [1]: 5.78
- % Remaining after infusion set [2]: (100.4%)
- Concentration after infusion set [2]: 275 µg/mL
- Osmolality after infusion set [2]: 277 mmol/kg
- pH after infusion set [2]: 5.81
- % Remaining after infusion set [3]: (100.0%)
- Concentration after infusion set [3]: 274 µg/mL
- Osmolality after infusion set [3]: 276 mmol/kg
- pH after infusion set [3]: 5.83
- % Remaining after infusion set [4]: (99.6%)
- Concentration after infusion set [4]: 272 µg/mL
- Osmolality after infusion set [4]: 276 mmol/kg
- pH after infusion set [4]: 5.78
- % Remaining after infusion set [5]: (100.2%)
- Concentration after infusion set [5]: 426 µg/mL
- Osmolality after infusion set [5]: 281 mmol/kg
- pH after infusion set [5]: 7.16
- % Remaining after infusion set [6]: (100.0%)
- Concentration after infusion set [6]: 434 µg/mL
- Osmolality after infusion set [6]: 282 mmol/kg
- pH after infusion set [6]: 7.13
- % Remaining after infusion set [7]: (100.0%)
- Concentration after infusion set [7]: 424 µg/mL
- Osmolality after infusion set [7]: 288 mmol/kg
- pH after infusion set [7]: 7.20
- % Remaining after infusion set [8]: (99.8%)
- Concentration after infusion set [8]: 433 µg/mL
- Osmolality after infusion set [8]: 286 mmol/kg
- pH after infusion set [8]: 7.09
- % Remaining after infusion set [9]: (99.8%)
- Concentration after infusion set [9]: 2520 µg/mL
- Osmolality after infusion set [9]: 283 mmol/kg
- pH after infusion set [9]: 5.70
- % Remaining after infusion set [10]: (100.0%)
- Concentration after infusion set [10]: 2530 µg/mL
- Osmolality after infusion set [10]: 283 mmol/kg
- pH after infusion set [10]: 5.72
- % Remaining after infusion set [11]: (99.6%)
- Concentration after infusion set [11]: 2520 µg/mL
- Osmolality after infusion set [11]: 279 mmol/kg
- pH after infusion set [11]: 5.83
- % Remaining after infusion set [12]: (100.4%)
- Concentration after infusion set [12]: 2460 µg/mL
- Osmolality after infusion set [12]: 283 mmol/kg
- pH after infusion set [12]: 5.81
- Concentration [13]: 275 µg/mL
- Osmolality [13]: 276 mmol/kg
- pH [13]: 5.87 and 5.99
- Concentration [14]: 272 µg/mL and 274 µg/mL
- Osmolality [14]: 275 mmol/kg and 277 mmol/kg
- pH [14]: 5.93 and 5.92
- Osmolality [15]: 278 mmol/kg and 277 mmol/kg
- T = 0 Conc. [15]: 0.273 mg/mL and 0.274 mg/mL and 0.275 mg/mL
- pH [15]: 6.39 and 6.43 and 6.45 and 6.40
- % Remaining Compared to T = 0 [16]: (100.0%)
- Concentration [16]: 434 µg/mL and 425 µg/mL
- Osmolality [16]: 281 mmol/kg
- pH [16]: 7.43 and 7.19
- % Remaining Compared to T = 0 [17]: (100.0%)
- Concentration [17]: 434 µg/mL and 424 µg/mL
- Osmolality [17]: 280 mmol/kg
- pH [17]: 7.33 and 7.41
- Osmolality [18]: 277 mmol/kg and 279 mmol/kg and 284 mmol/kg and 280 mmol/kg
- T = 0 Conc. [18]: 0.434 mg/mL and 0.424 mg/mL and 0.425 mg/mL
- pH [18]: 7.30 and 7.43 and 7.21 and 7.44
- Concentration [19]: 2510 µg/mL and 2520 µg/mL
- Osmolality [19]: 283 mmol/kg
- pH [19]: 5.93 and 5.96
- Concentration [20]: 2500 µg/mL and 2525 µg/mL
- Osmolality [20]: 282 mmol/kg
- pH [20]: 6.01 and 5.86
- Osmolality [21]: 282 mmol/kg and 281 mmol/kg
- T = 0 Conc. [21]: 2.450 mg/mL and 2.530 mg/mL and 2.525 mg/mL
- pH [21]: 6.20 and 6.10 and 6.07 and 6.11
- deviation of concentrations from initial T=0 time point (0.9% sodium chloride, 24 hours at RT and 2-8°C and after elution through infusion sets): ≤ 2.0%
- Concentration (5% dextrose bag, ~0.28 mg/mL, 24 Hours at 2-8°C): 280 µg/mL
